Test results taken from patent US6417159B1 (Queen's University at Kingston, priority 1996, dated 2002).
Entries after “also recorded” stand apart in the source; their conditions may differ.

What was measured:
[1] = Precipitation out of aqueous solution; format: physicochemical
PC12^nnr5 cells = assay: NGF-mediated neurite growth by PC12nnr5 cells; format: cell-based, rat; settings: absence or presence of R3 peptide
Method: PC12 cells or PC12^nnr5 cells (Loeb et al., 1991) were seeded on poly-D-lysine-coated (0.1 mg·ml^−1, overnight) 96-well microculture dishes (Falcon) at approximately 800 cells per well with RPMI with 10% fetal calf serum. Peptides were added to replicate wells 48 hours before, or at the time of, addition of NGF. NGF was prepared by the method of Mobley et al. (1976) and used at 1-2 nM. Other additives were diluted at least 100-fold and added to the wells as described. At various times following incubation at 37° C., 5% CO2, wells were scored for neurite-bearing cells by serial counting of representative circumferences of each well.
A Leitz Diavert inverted microscope with phase optics was used to score neurite growth. For both PC12 cells and sensory neurons, a neurite was scored as such if its calibre from origin to terminal was approximately the same and the length was equal to or greater than 1.5 cell body diameters.

PC12 cells [2] = assay: Binding of [125I]NGF to PC12 cells; set-up: species or system rat; settings: co-incubated with [125I]NGF
Method: PC12 cells were removed from culture dishes with CMF, washed, and incubated at a concentration of 10^6 per ml in Hepes-Krebs-Ringer (HKR) buffer buffer with 1 mg·ml^−1 BSA for 90 minutes at 37° C. in the presence of 40 pM [^125I]NGF in the absence and presence of excess unlabeled NGF, and in the absence and presence of R3 peptide. Aliquots of 100 μl were removed in replicates and mircocentrifuged at 10,000×g for 1 minute. Supernatants were removed, tips were cut from the microcentrifuge tube and counted in a gamma counter. Specific binding was defined as the difference between binding of the ligand in the absence and presence of unlabeled NGF, and fractional specific binding in the absence and presence of R3 peptide was compared. Studies of [^125I]NGF uptake into PC12 and PC12^nnr5 cells were carried out in the absence and presence of 10 μM R3 peptide and following a 24-hour exposure of PC12 cultures to 10 μM R3 peptide. Cells were eposed to 20 pM or 0.2 nM [^125I]NGF for periods of time up to 240 minutes (steady state) at 37° C. The cells were then briefly acid-washed as described by Bernd and Greene (1984), and aliquots were prepared for gamma counting as described. NGF was radioiodinated as described in Sutter et al. (1979b).

ED8 chick DRG neurons = assay: NGF-mediated neurite growth by ED8 chick DRG sensory neurons; format: cell-based
PC12 cells [3] = assay: Acid phosphatase assay of cell survival, PC12 cells; format: cell-based, rat; settings: PC12 (high-TrkA), serum-free conditions
Method: This is a colorimetric assay which measures the lysosomal enzyme acid phosphatase to determine cell number (Connolly et al., 1986) modified by Ueda et al. (1994) for use with cultured neuronal cells. Medium was removed gently from PC12 or PC12^nnr5 cells cultured in 96 well plates and well were washed once with 200 μl PBS. Then 100 μl of buffer containing 0.1M sodium acetate pH 5.5, 0.1% TRITON™ X-100, and 10 mM p-nitrophenyl phosphate (Sigma 104 phosphatase substrate) was added to each well. Plates were placed in a 37° C., 5% CO2 incubator for 3 hours. The reaction was stopped by the addition of 10 μl/well of 1N sodium hydroxide and the colour development measured at 405 nm using a microplate reader (Titertek). The first column on each plate contained no cells (buffer only) and was used as a blank. The relationship between cell number and enzyme activity was linear over the range 1000 to 15,000 cells.
To exclude the possibility that the effects of R3 on neurite growth in the experiments described above were indirect and mediated by an influence on cell survival, PC12 and PC12^nnr5 cells were exposed to serum free conditions in the absence and presences of NGF, and in the absence and presence of R3. […] Nor was there any difference in NGF-mediated survival whether R3 exposure occurred before or at the same time as NGF exposure. […]

PC12 cells [4] = assay: Basic fibroblast growth factor-mediated neurite growth by PC12 cells; format: cell-based, rat

Sequence: LDALLAALRRIQR [R3]
- Concentration at which the peptide tended to precipitate out of aqueous solution with time [1]: ≥ 50 µM
- Neurite growth in PC12nnr5 cells with NGF, in words (PC12^nnr5 cells): no effects on neurite growth
- Effect on [125I]NGF binding, in words (PC12 cells [2]): no effect on steady-state total or non-displaceable binding
- % of Control Response DRG (ED8 chick DRG neurons; (peptide with NGF − NGF alone)/(R3 with NGF − NGF alone) ×100, scored at 43, 44 and 48 hours, M ± SEM, n = 3 assays): 100 ± 16%
- Effect on NGF-mediated neurite growth, co-incubation, in words (ED8 chick DRG neurons; ED8 chick DRG neurons, 10 μM R3): enhancing effect; also recorded: markedly increased the response to NGF between 4 and 8 hours
- Influence on NGF-mediated cell survival, in words (PC12 cells [3]): no influence on NGF-mediated survival
- Influence on basic fibroblast growth factor-mediated neurite growth, in words (PC12 cells [4]): no influence
